Type in all cases: cell-based, human
The subject of one assay is SLAMF7-RPMI. Kind of assay: IFN-gamma ELISA, CAR T cells cultured overnight with SLAMF7-RPMI target cells. An excerpt: (§1) MM.1S is a SLAMF7^+ multiple myeloma cell line that was obtained from American Type Culture Collection (ATCC). A549 is a BCMA-negative lung cancer cell line (ATCC). TC71 is a BCMA-negative sarcoma cell line. CCRF-CEM, 293T, and A549 are SLAMF7-negative cell lines (ATCC). COL0207, HepG2, U251, Panc10.05, and TC71 are […] that were kind gifts from Dr. Steven Rosenberg, National Cancer Institute. SLAMF7-K562 are K562 cells (ATCC) which were transduced with the gene for full-length SLAMF7. SLAMF7-RPMI are RPMI8226 cells (ATCC) which were transduced with the gene for full-length SLAMF7. NGFR-K562 are K562 cells which were transduced with the gene for low-affinity nerve growth factor (Kochenderfer et al., J. Immunother., 32(7): 689-702 (2009)). All of the human samples mentioned were obtained from patients enrolled in IRB-approved clinical trials at the National Cancer Institute.
(§2) One-hundred thousand SLAMF7^+ or SLAMF7-negative target cells were combined with 100,000 CAR-transduced T cells in duplicate wells of a 96 well round bottom plate in 200 µL of AIM V™ medium (Invitrogen) plus 5% human serum. The plates were incubated at 37° C. for 18-20 hours. Following the incubation, ELISAs (enzyme-linked immunosorbent assays) for IFNγ were performed by using standard methods.
The T cells columns indicate whether T cells were transduced with Luc90-CD828Z, Luc63-CD828Z, or were untransduced. The % CAR^+ in Table B-1 was determined by staining the T cells with Protein L. Except for the % CAR^+ column, all values are pg/mL of IFN-gamma. T cells that were either untransduced or transduced with one of the indicated CARs were cultured with target cells overnight and a standard IFN-gamma ELISA was performed on the culture supernatant.
(§3) All values are pg/mL of IFN-gamma. T cells that were either untransduced or transduced with one of the indicated CARs were cultured with target cells overnight, and a standard IFN-gamma ELISA was performed on the culture supernatant.
The values in the cells are pg/mL of IFN-gamma. T cells that were either untransduced or transduced with one of the indicated CARs were cultured with target cells overnight, and a standard IFN-gamma ELISA was performed on the culture supernatant. The concentrations of 0, 50, or 200 ng/mL at the top of each column indicates the concentration of soluble SLAMF7 added to all T cell plus target cell overnight cultures in that column. The soluble SLAMF7 was added at the beginning of the overnight culture.

For the next assay, the system named is COLO 205. Kind of assay: IFN-gamma ELISA, CAR T cells with COLO 205 target cells. The conditions noted are these: Table B-1.
Text: as §1
(§4) One-hundred thousand SLAMF7^+ or SLAMF7-negative target cells were combined with 100,000 CAR-transduced T cells in duplicate wells of a 96 well round bottom plate in 200 µL of AIM V™ medium (Invitrogen) plus 5% human serum. […]
(§5) The T cells columns indicate whether T cells were transduced with Luc90-CD828Z, Luc63-CD828Z, or were untransduced. The % CAR^+ in Table B-1 was determined by staining the T cells with Protein L. Except for the % CAR^+ column, all values are pg/mL of IFN-gamma. […]

The next assay deals with HepG2. Kind of assay: IFN-gamma ELISA, CAR T cells with HepG2 target cells. As to conditions: Table B-1.
Text: as §1, §4, §5

The subject of another assay is U251. In words: IFN-gamma ELISA, CAR T cells with U251 target cells. As to conditions: Table B-2.
Text: as §1, §4, §5

In a further assay the test system is Panc 10.05. In words: IFN-gamma ELISA, CAR T cells with Panc 10.05 target cells. As to conditions: Table B-2.
Text: as §1, §4, §5

The subject of the next assay is TC71. Kind of assay: IFN-gamma ELISA, CAR T cells with TC71 target cells. As to conditions: Table B-2.
Text: as §1, §4, §5

The subject of the next assay is A549. In words: IFN-gamma ELISA, CAR T cells with A549 target cells. As to conditions: Table B-2; SLAMF7-negative.
Text: as §1, §4, §5

The test system of a further assay is H929. Kind of assay: IFN-gamma ELISA, CAR T cells with H929 target cells. The conditions noted are these: Table C. The protocol: as §2, §3
A further assay deals with SLAMF7^+ target cells. Kind of assay: IFN-gamma ELISA and functional assays. On the procedure: as §2
CAR-expressing T cells cultured alone produced very low levels of IFNγ. IFNγ production of T cells expressing a CAR with a 4-1BB moiety, Luc90-CD8BBZ, was compared to IFNγ production of T cells expressing Luc90-CD828Z (Table C). […] Low levels of soluble SLAMF7 are found in the serum of some MM patients (see Tai, et al., Blood, 112(4): 1329-1337 (2008)). IFNγ ELISA assays were conducted to determine if adding SLAMF7 to cultures of anti-SLAMF7 CAR T cells plus target cells could block IFNγ release by the CAR T cells (Table D). IFNγ release by the CART cells was used as a measure recognition of the SLAMF7^+ target cells by the CAR T cells. The concentrations of soluble SLAMF7 added to the cultures were similar to those found in the blood of patients. Blocking of SLAMF7^+ target cell recognition by the soluble SLAMF7 was not observed. Also, activation of the anti-SLAMF7 CAR T cells by the soluble SLAMF7 was not observed.

The subject of another assay is SLAMF7^+ MM.1S cells. In words: CD107a degranulation assay. The conditions noted are these: CD4^+ and CD8^+ T cells, cultured with MM.1S versus NGFR-K562, 4 hours. On the procedure:
For each T cell culture that was tested, two tubes were prepared. One tube contained MM.1S cells, and the other tube contained NGFR-K562 cells. Both tubes contained CAR-transduced T cells, 1 ml of AIM V™ medium (Invitrogen) plus 5% human AB serum, a titrated concentration of an anti-CD107a antibody (eBioscience, clone eBioH4A3, ThermoFisher Scientific), and 1 μL of GOLGISTOP™ (a protein transport inhibitor containing monensin, BD Biosciences). All tubes were incubated at 37° C. for 4 hours and then stained for CD3, CD4, and CD8.

Consider “Luc90-CD828Z: anti-SLAMF7 CAR (SEQ ID NO: 27): murine Luc90 scFv, human CD8a hinge and TM, CD28 and CD3ζ domains; tested as transduced T cells”, for which the “IFN-gamma, target cells SLAMF7-RPMI” value with SLAMF7-RPMI (Table B-1, overnight culture, ELISA on supernatant) is 21293 pg/mL. In addition, the “IFN-gamma, target cells SLAMF7-RPMI8226” value in the assay on SLAMF7-RPMI (Table C, overnight culture) is on record as 20832 pg/mL. In the assay with SLAMF7-RPMI (Table D, soluble SLAMF7 added 0 ng/ml), the “IFN-gamma, target cells SLAMF7 RPMI 0 ng/ml” value is on record as 23538 pg/mL. Moreover, in the assay on SLAMF7-RPMI (Table D, soluble SLAMF7 added 50 ng/ml), the “IFN-gamma, target cells SLAMF7 RPMI 50 ng/ml” value turned out to be 23.315 ng/mL. For the same substance, the “IFN-gamma, target cells CD319 RPMI 200 ng/ml” value with SLAMF7-RPMI (Table D, soluble SLAMF7 added 200 ng/ml) is 21301 pg/mL. Also, the “IFN-gamma, target cells COLO 205” value with COLO 205 is listed as 19 pg/mL. For the same substance, the “IFN-gamma, target cells HepG2” value with HepG2 amounted to 24 pg/mL. For the same substance, in the assay on U251, the “IFN-gamma, target cells U251” value worked out at 27 pg/mL. Further, the “IFN-gamma, target cells Panc 10.05” value in the assay on Panc 10.05 is given as 36 pg/mL. Besides, the “IFN-gamma, target cells TC71” value in the assay on TC71 amounted to 82 pg/mL. The “IFN-gamma, target cells A549” value in the assay with A549 was found to be 79 pg/mL. The “IFN-gamma, target cells H929” value in the assay on H929 turned out to be 531 pg/mL. Also, in the assay on SLAMF7^+ target cells (ELISA assays and CD107a degranulation experiments, versus huLuc63-CD828Z), the “function of T cells expressing the CAR, overall comparison” value is “superior”. Also, the “SLAMF7-specific IFNγ release, comparison of CARs” value with SLAMF7^+ target cells (Luc90-CD828Z versus huLuc63-CD828Z, most experiments) was “greater”. Further, in the assay on SLAMF7^+ MM.1S cells, the “CD107a upregulation (degranulation)” value was “degranulated”.
